# According to patent US5306812A, “Immunoglobulin-binding polypeptides” (The Regents of the University of California, priority 1990, dated 1994):
# Where no end group is shown, it is not given here.
# Tests used:
# [1] = system: murine monoclonal antibodies; test: ELISA: binding of solid-phase CD4 peptide to murine monoclonal antibodies; parameters: species or system mouse; settings: compared with p21-38 and p21-49 or with background
# Description: The plate was maintained for six hours at 37 degrees (37° C.) on a rotating platform to allow the peptide to adhere to the wells and form solid supports. After aspirating the excess liquid from the wells, 200 ul of washing solution containing TWEEN 20 (0.5% polyoxyethylenesorbitan monolaurate) in phosphate buffered saline (0.5M sodium chloride, 0.01M sodium phosphate at pH 7.2; PBS) was admixed to each well and immediately removed by aspiration. After aspirating the excess liquid from the wells 200 ul of blocking solution consisting of 1% bovine serum albumin (BSA) in phosphate buffered saline at pH 7.4 was admixed to each well, and the wells maintained at room temperature for one hour. The wells were washed with 200 ul a solution containing 0.5% TWEEN-20 (Polyoxyethylenesorbitan monolaurate) in PBS and the wash solution immediately removed by aspiration.
# A first antibody, either a murine monoclonal antibody or a purified human myeloma protein was diluted to approximately 80 ug per ml in binding buffer consisting of 1% BSA and 0.5% TWEEN 20 (polyoxyethylenesorbitan monolaurate) in PBS and then various amounts, depending on the final antibody concentration desired, were admixed to each well and the wells maintained at room temperature for 3 or 4 hours in a humidified atmosphere. The wells were then washed 6 times with washing buffer and the excess liquid removed by aspiration.
# 50 ul of a horse radish peroxidase (HRP)-conjugated anti-mouse Ig secondary antibody (Cappel, Cochranvile, Pa.) or HRP-conjugated antihuman Ig (Sigma, St. Louis, Mo.) diluted 1:10,000 and 1:1,500, respectively, in binding buffer supplemented with 15% heat inactivated calf serum, was then admixed to each well. The wells were maintained for 1 hour at room temperature and then washed several times with washing buffer. 100 ul of freshly prepared substrate, prepared by adding 4 mg of 0-phenylendiamine and 4 ul of a 30% solution of hydrogen peroxide to 10 ml of a buffer containing 0.1M citric acid and 0.2M dibasic sodium phosphate at pH 5.0. were admixed to each well. The wells were then maintained (incubated) for 30 minutes at room temperature in the dark. The reaction was stopped by adding 25 ul per well of a stop buffer consisting of aqueous 4N H2 SO4. The amount of colored reaction product produced was determined by measuring the absorbance at 492 nanometers (nm).
# Each peptide's ability to bind mouse monoclonal antibodies was determined using the ELISA assay described in Example 1B.
# [2] = system: binding of peptide p21-49 to immunoglobulin (monoclonal antibodies 62 and OKT4A); test: ELISA: binding of p21-49 to immunoglobulins in the presence of dextran sulfate; parameters: species or system murine; settings: dextran sulfate 0.01 ug/ml to 50 ug/ml; both monoclonal antibody 62 (anti-thyroglobulin) and OKT4A (anti-CD4)
# Description: The binding of peptide p21-49 to various immunoglobulins was determined in the presence of varying concentration of dextran sulfate. Briefly, peptide p21-49 was affixed to the wells of microliter plates as described in Example 1B. Dextran sulfate was then admixed to individual wells at a final concentration ranging from 0.01 ug/ml to 50 ug/ml. The first antibody, either a murine monoclonal antibody immunospecific for thyroglobulin or a murine monoclonal antibody immunospecific for CD4 protein was diluted to approximately 4 ug/ml in binding buffer and admixed to each well. The wells were maintained at room temperature for 4 hours in a humidified atmosphere. The wells were then washed 6 times with washing buffer and the excess liquid removed by aspiration. The assay was completed according to Example 1B.
inhibition of peptide p21-49 binding to immunoglobulin (FIG. 7) [2],Substance,relative binding of CD4 peptides (FIG. 15) [1]
,"IQFHWKNSNQIKILG [p 24-38, IQ FHWKN SNQIK ILG]",comparable binding with that of p21-38 and p21-49
,"KKSIQFHWKNSNQIKIL [p 21-37, KKSIQ FHWKN SNQIK IL]",comparable binding with that of p21-38 and p21-49
,"KSIQFHWKNSNQIKILG [p 22-38, KSIQ FHWKN SNQIK ILG]",comparable binding with that of p21-38 and p21-49
,"SIQFHWKNSNQIKILG [p 23-38, SIQ FHWKN SNQIK ILG]",comparable binding with that of p21-38 and p21-49
inhibits the binding,dextran sulfate,
